Experimental data as given in patent publication US20240335395A1, “COMPOSITIONS AND METHODS FOR PREVENTING AND/OR TREATING DISEASE ASSOCIATED WITH IL-23 EXPRESSION” (ALLSPIM, priority 2021, published 2024).

Tests used:
[1] = test system: IL-17; experiment: IL-17 protein in culture supernatant of RA-patient synovial cells; format: cell-based, human; settings: increasing concentrations
[2] = test system: IL-10; experiment: MSU-induced IL-10 in knee joint tissue (multiplex microassay); format: in vivo, mouse; settings: 2,4-D 100 mg/kg, DEX 0.5 mg/kg
Description: Mice (six per group) were treated with 2,4-D (100 mg/kg or 20 mg/kg, i.p.), CLC (1 mg/kg or 0.2 mg/kg, i.p.), DEX (0.5 mg/kg or 0.1 mg/kg, i.p.), or vehicle (20% polyoxyethylenesorbitan monooleate (Tween 80) plus PBS) 30 min before intra-articular stimulus with MSU (100 μg/10 μL, i.a.). Six mice with intra-articular injection with PBS alone served as a negative control.
Induction of MSU-Induced Knee Joint Inflammation. Male ICR (CD-1) mice (35-45 g, 10-12 weeks) were purchased from VitalRiver Inc (Beijing, China) and were kept in an animal care facility under controlled temperature of 21±1° C., humidity, and on a light/dark cycle, with ad libitum access to water and standard laboratory chow diet. Animal care and handling procedures were approved by the Animal Ethics Committee of GZUCM (Guangzhou University of Chinese Medicine). All efforts were made to minimize animal suffering and to reduce the number of animals used. Joint inflammation was induced by the intra-articular (i.a.) administration of MSU (200 μg/20 μl) into the right and left knee joints of mice under inhaled 3% isoflurane anesthesia. Control animals received an injection (i.a.) of sterile PBS (20 μL).
Cytokine Measurement. Mice were anesthetized and sacrificed. Knee joints were collected and frozen in liquid nitrogen. Samples were then homogenized in 500 μl of buffer containing protease inhibitors, centrifuged (3600 rpm, 4° C., 15 min) and supernatants were used to determine Th1/Th2/Th17 cytokine levels using a multiplex microassay (Qantibody® mouse TH17 Array 1 kit, Cat. No.: QAM-TH17-1; RayBiotech, Norcross, GA). Results were expressed as picograms (pg) of cytokine/mg of tissue.
Statistical Analysis. […] For in vitro experiments, microassays were performed in quadruplicate. p<0.05 was considered significant (*p<0.05, **p<0.01, ***p<0.001).

[3] = Solubility in water; format: physicochemical
[4] = test system: IL-17/IL-23 and TNF signaling pathway-associated cytokine genes and chemokine genes; experiment: Transcription of IL-17/IL-23 and TNF signature genes in LPS-stimulated THP-1 cells (qPCR); format: cell-based, human; settings: 2 h; 2,4-D 5-20 μM, DEX 20-80 ng/ml
Description: Sample Collection and Preparation. THP-1 cells, a human leukemia monocyte-derived cell line, have been widely used as a model to study the modulation of the immune response and the function of monocytes and monocyte-derived macrophages. Here, lipopolysaccharide (LPS)-stimulated THP-1 cells were used as a model to study the cytokine storm in vitro (Chanput et al., 2014). THP-1 cells (purchased from American Type Culture Collection, Rockville, MD) were grown in RPMI 1640 culture medium (Gibco) supplemented with 10% fetal bovine serum (FBS) (Gibco, UK), 0.05 mM 2-mercaptoethanol, and 1% penicillin/streptomycin (Invitrogen) at 37° C. in 5% CO2 in a humidified incubator. Cultured cells were plated into culture plates in appropriate volumes with a cell density of 5×10^5 cells/ml. 2,4-D was purchased from Wuhan ChemFaces Biochemical Co., Ltd (Hubei, China) and tested for cytotoxicity in THP-1 cells overnight using a commercial MTT Cell Proliferation and Cytotoxicity Assay Kit (Beyotime, Shanghai, China). […]
Real-Time Quantitative PCR. Real-time quantitative PCR was performed in triplicate using the TB Green qPCR master mix (Takara Biomedical Technology Co., Ltd, Dalian, China) on an ABI 7500 Real-Time PCR System (Thermo, USA). […] The ΔΔCT method was used to quantify relative mRNA levels as described above in Example 1 (Applied Biosystems). Data are expressed as mean±SD. […]

[5] = test system: IL-23; experiment: IL-23 protein in culture supernatant of RA-patient synovial cells; format: cell-based, human; settings: increasing concentrations

COc1cc(O)c(OC)c(O)c1C(=O)/C=C/c1ccccc1 [2,4-D, 2′,4′-dihydroxy-3′,6′-dimethoxychalcone]
concentration of IL-17 protein in the culture supernatant [1]: significantly inhibited | decrease of IL-10 in knee joint tissue [2]: 1.7 fold | solubility in water [3]: Low solubility | suppression of transcription of IL-17/IL-23 and TNF signatures [4]: 63-143 fold | concentration of IL-23 protein in the culture supernatant [5]: significantly inhibited
